Measurements from ChEMBL document CHEMBL1152907, “Synthesis and cytotoxicities of icogenin analogues with disaccharide residues” (Bioorg Med Chem Lett, 2009).

How the values were obtained:
Type in all cases: functional, cell-based
A549 = test: Cytotoxicity against human A549 cells after 72 hrs by MTT assay; conditions: A549, 72 h
BXPC-3 = test: Cytotoxicity against human BxPC3 cells after 72 hrs by MTT assay; conditions: BXPC-3, 72 h
HCT-8 = test: Cytotoxicity against human HCT8 cells after 72 hrs by MTT assay; conditions: HCT-8, 72 h
Capan-2 = test: Cytotoxicity against human Capan2 cells after 72 hrs by MTT assay; conditions: Capan-2, 72 h
PANC-1 = test: Cytotoxicity against human PANC1 cells after 72 hrs by MTT assay; conditions: PANC-1, 72 h
MCF7 = test: Cytotoxicity against human MCF7 cells after 72 hrs by MTT assay; conditions: MCF7, 72 h
A2780 = test: Cytotoxicity against human A2780 cells after 72 hrs by MTT assay; conditions: A2780, 72 h
SW1990 = test: Cytotoxicity against human SW1990 cells after 72 hrs by MTT assay; conditions: SW1990, 72 h
Bel-7402 = test: Cytotoxicity against human Bel7402 cells after 72 hrs by MTT assay; conditions: Bel-7402, 72 h
HL-60 = test: Cytotoxicity against human HL60 cells after 72 hrs; conditions: HL-60, 72 h

Row | SMILES | IC50 (A549) [µM] | IC50 (BXPC-3) [µM] | IC50 (HCT-8) [µM] | IC50 (Capan-2) [µM] | IC50 (PANC-1) [µM] | IC50 (MCF7) [µM] | IC50 (A2780) [µM] | IC50 (SW1990) [µM] | IC50 (Bel-7402) [µM] | IC50 (HL-60) [µM]
1 | C[C@@H]1CC[C@@]2(OC1)O[C@H]1C[C@H]3[C@@H]4CC=C5C[C@@H](O[C@@H]6O[C@H](CO)[C@@H](O[C@@H]7O[C@@H](C)[C@H](O)[C@@H](O)[C@H]7O)[C@H](O)[C@H]6O[C@@H]6O[C@@H](C)[C@H](O)[C@@H](O)[C@H]6O)CC[C@]5(C)[C@H]4CC[C@]3(C)[C@H]1[C@@H]2C [DIOSCIN] | 0.7 | 0.7 | 0.56 | 0.05 | 0.81 | 1.03 | 4.46 | 0.5 | 0.23 | 
2 | CO[C@]1(CC[C@@H](C)CO)O[C@H]2C[C@H]3[C@@H]4CC=C5C[C@@H](O[C@H]6O[C@H](CO)[C@@H](O)[C@H](O[C@@H]7O[C@H](CO)[C@@H](O)[C@H](O)[C@H]7O)[C@H]6O[C@@H]6O[C@@H](C)[C@H](O)[C@@H](O)[C@H]6O)CC[C@]5(C)[C@H]4CC[C@]3(C)[C@H]2[C@@H]1C | 0.89 | 1 | 1.3 | 1.1 | 0.82 | 1.2 | 7.1 | 0.9 | 0.92 | 
3 | C[C@@H]1CC[C@@]2(OC1)O[C@H]1C[C@H]3[C@@H]4CC=C5C[C@@H](O[C@@H]6O[C@H](CO)[C@@H](O)[C@H](O[C@@H]7O[C@@H](C)[C@H](O)[C@@H](O)[C@H]7O)[C@H]6O)CC[C@]5(C)[C@H]4CC[C@]3(C)[C@H]1[C@@H]2C [POLYPHILLIN C] | 2.3 | > 10 | 4.16 | 2.7 | 11.8 | 3.45 | > 10 | 5.4 | > 10 | 
4 | CO[C@]1(CC[C@@H](C)CO)O[C@H]2C[C@H]3[C@@H]4CC=C5C[C@@H](O[C@H]6O[C@H](CO)[C@@H](O)[C@H](O)[C@H]6O[C@@H]6O[C@@H](C)[C@H](O)[C@@H](O)[C@H]6O)CC[C@]5(C)[C@H]4CC[C@]3(C)[C@H]2[C@@H]1C | 1.48 | 1.04 | 1.26 | 1.36 | 0.87 | 2.65 | 7.8 | 0.73 | 0.94 | 
5 | Nc1ccn([C@@H]2O[C@H](CO)[C@@H](O)C2(F)F)c(=O)n1 [GEMCITABINE] | 1.4 | 2.9 | 1.74 | 1.7 | 5.6 | 3.28 | 0.31 | 1.2 | 0.84 | 
6 | C[C@@H]1CC[C@@]2(OC1)O[C@H]1C[C@H]3[C@@H]4CC=C5C[C@@H](O[C@H]6O[C@H](CO)[C@@H](O)[C@H](O)[C@H]6O[C@@H]6O[C@@H](C)[C@H](O)[C@@H](O)[C@H]6O)CC[C@]5(C)[C@H]4CC[C@]3(C)[C@H]1[C@@H]2C | > 10 | > 10 | > 10 | > 10 | > 10 | > 10 | > 10 | > 10 | > 10 | 
7 | C[C@@H]1CC[C@@]2(OC1)O[C@H]1C[C@H]3[C@@H]4CC=C5C[C@@H](O[C@@H]6O[C@H](CO)[C@@H](O)[C@H](O[C@@H]7O[C@H](CO)[C@@H](O)[C@H](O)[C@H]7O)[C@H]6O[C@@H]6O[C@@H](C)[C@H](O)[C@@H](O)[C@H]6O)CC[C@]5(C)[C@H]4CC[C@]3(C)[C@H]1[C@@H]2C [GRACILLIN] | 0.96 | 1.3 | 0.92 | 1.3 | 0.7 | 17.5 | 4.3 | 1.1 | 1.1 | 
8 | CO[C@]1(CC[C@@H](C)CO)O[C@H]2C[C@H]3[C@@H]4CC=C5C[C@@H](O[C@@H]6O[C@H](CO)[C@@H](O)[C@H](O)[C@H]6O[C@@H]6O[C@@H](C)[C@H](O)[C@@H](O)[C@H]6O)CC[C@]5(C)[C@H]4CC[C@]3(C)[C@H]2[C@@H]1C | 1.08 | 1.01 | 1.02 | 1.07 | 0.83 | 2.89 | 7.2 | 0.66 | 0.9 | 
9 | CO[C@]1(CC[C@@H](C)CO)O[C@H]2C[C@H]3[C@@H]4CC=C5C[C@@H](O[C@@H]6O[C@H](CO)[C@@H](O)[C@H](O[C@@H]7O[C@H](CO)[C@@H](O)[C@H](O)[C@H]7O)[C@H]6O[C@@H]6O[C@@H](C)[C@H](O)[C@@H](O)[C@H]6O)CC[C@]5(C)[C@H]4CC[C@]3(C)[C@H]2[C@@H]1C [ICOGENIN(BETA)] | 1.86 | 1.1 | 0.93 | 1.1 | 0.84 | 1.07 | 0.92 | 1 | 0.86 | 2.6
